Measured values published in patent US9867794B2, “Regulation of osteopontin” (Pathologica LLC, priority 2007, dated 2018).
“And” between values parts separate entries of the source, which are not always exact repeats. Equal values may be shown once.

How the values were obtained:
Format in all cases: cell-based, human
IL10 = experiment: Microarray analysis of mononuclear cells, IL10 probe; conditions: presence of MGBG, all samples
Protocol: (§1) Blood samples were obtained from HIV infected patients (N=9) with positive viral load and reduced CD4 counts, and non-HIV infected, healthy controls (N=6). Blood was collected into heparin anticoagulant tubes and mononuclear cells were isolated by Percoll gradient centrifugation. The cells from each sample were split into 2: one-half receives MGBG at concentration of 10 μM and the other half received no treatment. All samples were then cultured overnight in RPMI media with 10% fetal bovine serum at 37° C. under non-adherent conditions. The next day cells were collected by centrifugation, washed one time with PBS, and lysed by resuspension in TRIZOL, and total RNA was prepared according to manufacturer's instructions (Invitrogen, Carlsbad, Calif.). […] The RNA was then amplified for microarray analysis using a 2 cycle amplification protocol according to the manufacturer's instructions (Affymetrix, Santa Clara, Calif.). The amplified RNAs were then hybridized to Human Genome U133 plus 2.0 microarrays (Affymetrix) and expression data was obtained using an Affymetrix scanner and GCOS protocols. Microarray data was analyzed with GeneSpring Microarray Suite. Results were normalized using a set of 100 probe sets determined by the manufacturer to have relatively invariant expression across most cell types.

LILRA1 = experiment: Microarray analysis of mononuclear cells, LILRA1; conditions: for LILRA1 signal +, Average: 10 μM MGBG
Protocol: as §1

SPP1 = experiment: Microarray analysis of mononuclear cells, SPP1; conditions: for SPP1 signal +, Average: 10 μM MGBG
Protocol: as §1

IL24 = experiment: Microarray analysis of mononuclear cells, IL24; conditions: for IL24 signal +, Average: 10 μM MGBG
Protocol: as §1

SGNE3 = experiment: Quantitative RT-PCR, unsorted mononuclear cells, SGNE3
Protocol: To evaluate the effect of MGBG on gene expression, blood samples were obtained from patients (N=18, 10 HIV-infected and 8 Healthy Controls). Mononuclear cells were isolated via Percoll gradient centrifugation. The cells were split into two tubes, one treated with 10 μM of MGBG and the other non-treated. The cells were then cultured overnight in RPMI media plus 10% fetal bovine serum at 37 C under non-adherent conditions, collected, lysed using Trizol solution, and total RNA prepared according to manufacturer's instructions (Invitrogen, Carlsbad, Calif.).
Approximately 200 ng of total RNA prepared from each sample was converted to cDNA using the First Strand cDNA Synthesis Kit for RT-PCR [AMV] kit (Roche Applied Diagnostics, Indianapolis, Ind.) according to manufacturer's instructions. Around 5 ng of cDNA sample was then used for PCR performed on a LightCycler (Roche Applied Diagnostics, Indianapolis, Ind.) using the LightCycler FastStart DNA Master SYBR Green I kit. PCR conditions are as follows: 1 cycle of denaturation at 95° C. for 10 minutes, followed by 45 cycles of 95° C. for 10 seconds, 68° C. for 10 seconds, and 72° C. for 16 seconds.
The sequences of gene-specific primers evaluated are listed below. All samples were also amplified with the human β-actin LightCycler-Primer set (Roche Diagnostics).

osteopontin = experiment: QRT-PCR in CD14/CD16-separated cell fractions, osteopontin RNA; conditions: for osteopontin RNA, median change relative to no MGBG: 10 μM MGBG
Protocol: (§2) The changes induced by MGBG in different blood cell types were determined for osteopontin and adenosine deaminase and 7 other genes. For this experiment, blood samples were obtained from 6 healthy controls (3 men/3 women from 20 to 55 years of age) and mononuclear cells were isolated via Percoll gradient centrifugation. The cells were then incubated for 3 hours in RPMI media plus 10% fetal bovine serum at 37 C. At that point MGBG was added to 10 μM to half of each sample and then the cells were incubated at 37 C for 20 more hours. The cells were then bound to magnetic beads coated with antibodies to human CD16. Bound cells (CD16 expressing) were separated from unbound cells using an AutoMACs according to manufacturer's instructions (Miltenyi, Auburn Calif.). Then CD16+ cells are released from the magnetic beads and both the CD16+ and CD16− cells are combined with magnetic beads coated with antibodies to human CD14. Antibody bound and unbound cells were then separated using the AutoMACs machine. […] Cells that neither express CD16 nor CD14 (the −/− Cells). This is mostly T lymphocytes; 2. Cells that only express CD16. This includes contaminating granulocytes not removed by Percoll centrifugation and CD16+ monocytes with very low CD14 expression; 3. Cells that express both CD16 and CD14. This includes monocytes that are expressing CD16+ and macrophages (which express high levels of both); and 4. Cells that only express CD14. This would include most normal human monocytes. After separation, cells of each fraction are washed with PBS and the number of viable cells determined by trypan blue exclusion. RNA is then prepared from each cell group using TRIZOL, according to manufacturer's instructions.

GPR43 = experiment: QRT-PCR in CD14/CD16-separated cell fractions, GPR43 RNA; conditions: CD14/CD16++ macrophages, 10 μM MGBG, p=0.03
Protocol: as §2, with “Cells that express both CD16 and CD14. This includes monocytes that are expressing CD16+ and macrophages (which express high levels of both); and 4. Cells that only express CD14. This would include most normal human monocytes.” left out, “RNA is then prepared from each cell group using TRIZOL, according to manufacturer's instructions.” left out

[1] = average of control samples (C6-, M6-177)
[2] = 10 μM, individual donor samples
[3] = presence of 10 μM MGBG overnight, individual donor samples
[4] = 10 μM MGBG, all unsorted samples

## CC(/C=N/NC(=N)N)=N\NC(=N)N [MGBG, 1,1′ [methylethanediylidene]dinitrilodiguanidine]
IL10
  average change in IL10 signal, upregulated: 5.6 fold
LILRA1; average of HIV samples
  LILRA1 signal +, Average: 77
LILRA1; [1]
  LILRA1 signal +, Average: 133
LILRA1; [2]
  LILRA1 fold change, ON/MGBG ratio (down-regulation): 6.5 fold and 1.8 fold and 0.3 fold (2×) and 11.6 fold and 3.7 fold and 3.1 fold and 13.8 fold and 2.4 fold and 0.5 fold and 1.1 fold and 2.9 fold and 14.6 fold and 1.3 fold (2×)
LILRA1; HIV samples
  samples with LILRA1 down-regulated more than 2 fold: 5 of 9
LILRA1; [3]
  LILRA1 signal +: 40 and 129 and 10 and 65 and 246 and 73 and 42 and 99 and 94 and 212 and 277 and 21 and 1 and 15 and 164
SPP1; average of HIV samples
  SPP1 signal +, Average: 498
SPP1; [1]
  SPP1 signal +, Average: 633
SPP1; [2]
  SPP1 fold change, ON/MGBG ratio (down-regulation): 60.5 fold and 47.8 fold and 11.5 fold and 43.9 fold and 0.7 fold and 7.0 fold and 2.3 fold and 438.8 fold and 1.4 fold and 5.7 fold and 5.9 fold and 68.0 fold and 57.9 fold and 4.2 fold and 1.2 fold
SPP1; of the 15 samples evaluated
  samples with 2 fold or greater reductions in SPP1 signal: 12
SPP1; [3]
  SPP1 signal +: 1480 and 113 and 34 and 143 and 458 and 53 and 81 and 264 and 232 and 1519 and 1647 and 64 and 22 and 1684 and 487
IL24; average of HIV samples
  IL24 signal +, Average: 560
IL24; [1]
  IL24 signal +, Average: 598
IL24; [2]
  IL24 fold change, MGBG/ON ratio (up-regulation): 5.4 fold and 1.2 fold (2×) and 3.3 fold and 0.3 fold and 0.5 fold and 0.2 fold and 5.5 fold and 2.6 fold and 4.5 fold (2×) and 0.03 fold and 192.1 fold and 0.6 fold and 26.0 fold
IL24; HIV infected samples but not controls
  IL24 regulation after MGBG exposure: upregulated
IL24; [3]
  IL24 signal +: 111 and 85 and 1940 and 178 and 375 and 578 and 206 and 1549 and 925 and 163 and 166 and 350 and 1364 and 59 and 577
SGNE3; 10 μM MGBG overnight, untreated vs treated, negative = fold reduction, individual samples
  Fold change SGNE3 by QRT-PCR: 1.58 fold and −3.25 fold and −1.30 fold and −2.39 fold and −2.43 fold and −1.48 fold and 1.61 fold and −3.61 fold and −1.66 fold and −1.13 fold and 1.79 fold and −7.11 fold and −2.50 fold and −4.41 fold
SGNE3; [4]
  Fold change SGNE3, AVERAGE: −1.9 fold
  Fold change SGNE3, MAX: 1.8 fold
  Fold change SGNE3, MIN: −7.1 fold
SGNE3; level of inhibition in most samples is low
  SGNE3 regulation by MGBG: mostly down-regulated
SGNE3; share of samples, 10 μM MGBG
  SGNE3 % >2 fold Changed: 50%
osteopontin; CD14+ monocyte fraction
  osteopontin RNA, median change relative to no MGBG: 0.21
osteopontin; CD14+ monocyte fraction, 10 μM MGBG 20 h, healthy controls, p=0.03
  osteopontin RNA median reduction: 4.8 fold
osteopontin; CD14/16++ cells, not significant
  osteopontin RNA, median change relative to no MGBG: 0.61
osteopontin; CD16+ cells, not significant
  osteopontin RNA, median change relative to no MGBG: 1.12
osteopontin; double negative cells, not significant
  osteopontin RNA, median change relative to no MGBG: 0.70
GPR43
  GPR43 expression median signal relative to no MGBG: 2.4
